Patent US8912120B2, “Herbicidal compositions comprising 4-amino-3-chloro-5-fluoro-6-(4-chloro-2-fluoro-3-methoxyphenyl) pyridine-2-carboxylic acid or a derivative thereof and synthetic auxin herbicides” (Dow AgroSciences, LLC., priority 2012, dated 2014)
Several values for one entry are separate records, joined by “and”; a condition that tells them apart may be missing. Equal values may be shown once.

How the values were obtained:
CYPES = test: Example I: postemergence foliar-applied herbicidal mixtures, direct seeded rice, CYPES; format: in vivo, Cyperus esculentus (yellow nutsedge); settings: 4.38 gae/ha
Procedure: (§7) The soil matrix was contained in plastic pots with a volume of 1 quart and a surface area of 83.6 square centimeters (cm^2). […] The plants were grown for 8-22 days in a greenhouse with an approximate 14 h photoperiod which was maintained at about 29° C. during the day and 26° C. during the night. Nutrients (Peters Excel® 15-5-15 5-Ca 2-Mg and iron chelate) were applied in the irrigation solution as needed and water was added on a regular basis. Supplemental lighting was provided with overhead metal halide 1000-Watt lamps as necessary. The plants were employed for testing when they reached the first through fourth true leaf stage.
(§8) Treatments consisted of the acid or esters of 4-amino-3-chloro-5-fluoro-6-(4-chloro-2-fluoro-3-methoxy-phenyl)pyridine-2-carboxylic acid (Compound A), each formulated as an SC (suspension concentrate), and various herbicidal components alone and in combination. Forms of compound A were applied on an acid equivalent basis.
(§9) For treatments comprised of formulated compounds, measured amounts of compounds were placed individually in 25 mL glass vials and diluted in a volume of 1.25% (v/v) Agri-Dex® crop oil concentrated to obtain 12× stock solutions. […] Application solutions were prepared by adding an appropriate amount of each stock solution (e.g., 1 mL) and diluted to the appropriate final concentrations with the addition of 10 mL of an aqueous mixture of 1.25% (v/v) crop oil concentrate so that the final spray solutions contained 1.25+/−0.05% (v/v) crop oil concentrate.
(§10) All stock solutions and applications solutions were visually inspected for compound compatibility prior to application. Spray solutions were applied to the plant material with an overhead Mandel track sprayer equipped with a 8002E nozzles calibrated to deliver 187 L/ha over an application area of 0.503 m^2 at a spray height of 18 to 20 inches (46 to 50 cm) above average plant canopy height. Control plants were sprayed in the same manner with the solvent blank.
(§11) The treated plants and control plants were placed in a greenhouse as described above and watered by sub-irrigation to prevent wash-off of the test compounds. After approximately 3 weeks, the condition of the test plants as compared with that of the untreated plants was determined visually and scored on a scale of 0 to 100 percent where 0 corresponds to no injury or growth inhibition and 100 corresponds to complete kill.
(§12) Colby's equation was used to determine the herbicidal effects expected from the mixtures (Colby, S. R. 1967. Calculation of the synergistic and antagonistic response of herbicide combinations. Weeds 15:20-22).
(§13) The following equation was used to calculate the expected activity of mixtures containing two active ingredients, A and B: Expected=A+B−(A×B/100) […]

CYPIR = test: Example II: in-water applied herbicidal mixtures, transplanted paddy rice, CYPIR; format: in vivo, Cyperus iria L. (flatsedge; settings: 21 DAA
SCPJU = test: Example II: in-water applied herbicidal mixtures, transplanted paddy rice, SCPJU; format: in vivo, Schoenoplectus juncoides (Japanese bulrush); settings: for Visual Weed Control (%) - 21 DAA SCPJU Obs / Visual Weed Control (%) - 25 DAA SCPJU Obs: in-water application
Method in brief: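 Transplanted paddy rice (2nd–3rd leaf seedlings, moved into mud 4 days before treatment) in flooded non-perforated pots; herbicides injected singly and in sequence into the paddy water layer. Solvent-blank controls; acetone and crop oil concentrate kept equal across all treatments.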

FIMMI = test: Example II: in-water applied herbicidal mixtures, transplanted paddy rice, FIMMI; format: in vivo, Fimbristylis miliacea (globe fringerush); settings: 22 DAA; 10.6 gae/ha
Procedure: The prepared mud was dispensed in 365 mL aliquots into 16-ounce (oz.) non-perforated plastic pots with a surface area of 86.59 square centimeters (cm^2) leaving a headspace of 3 centimeters (cm) in each pot Mud was allowed to dry overnight prior to planting or transplanting. Rice seeds were planted in Sun Gro MetroMix® 306 planting mixture, which typically has a pH of 6.0 to 6.8 and an organic matter content of about 30 percent, in plastic plug trays. Seedlings at the second or third leaf stage of growth were transplanted into 840 mL of mud contained in 32-oz. non-perforated plastic pots with a surface area of 86.59 cm^2 4 days prior to herbicide application. […] Nutrients were added as Osmocote® (19:6:12, N:P:K^+ minor nutrients) at 2 g per 16-oz. pot and 4 g per 32-oz. pot.
Applications were made by injecting with a pipetter appropriate amounts of the application solutions, individually and sequentially, into the aqueous layer of the paddy. Control plants were treated in the same manner with the solvent blank. Applications were made so that all treated plant material received the same concentrations of acetone and crop oil concentrate.

CYPDI = test: Example I: postemergence foliar-applied herbicidal mixtures, direct seeded rice, CYPDI; format: in vivo, Cyperus difformis (smallflower umbrella sedge)
Procedure: as §7, §8, §9, §10, §11, §12, §13

PANDI = test: Example III: postemergence foliar-applied herbicidal mixtures, row crop weeds, PANDI; format: in vivo, Panicum dichotomiflorum (fall panicum); settings: 16 DAA; 3.75 gae/ha
Procedure: (§1) The plants were grown for 7-31 days (d) in a greenhouse with an approximate 15 hour (h) photoperiod which was maintained at about 23-29° C. during the day and 22-28° C. during the night.

BRSNN = test: Example IV: postemergence foliar-applied herbicidal mixtures, cereal crops, BRSNN; format: in vivo, Brassica napus (volunteer canola); settings: 8.75 gai/ha
Method in brief: (§2)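 Greenhouse plants were grown 7–36 days in potting mix (pH 6.0–6.8) under ~14 h photoperiod at about 18 °C day/17 °C night. Postemergence foliar sprays (12 mL) contained the second cereal herbicide with experimental compound as two- and three-way mixtures.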

SOOSS = test: Example V: postemergence herbicidal activity of mixtures in forage crops, SOOSS; format: in vivo, Solidago L. spec. (goldenrod); settings: alone, foliar, approximately 21 days
Procedure: (§3) Seeds or root cuttings of the desired test plant species were planted in Sun Gro MetroMix® 306 planting mixture, which typically has a pH of 6.0 to 6.8 and an organic matter content of about 30 percent, in plastic pots with a surface area of 126.6 square centimeters (cm^2). […] The plants were grown for 14-60 days in a greenhouse with an approximate 14 hour photoperiod which was maintained at approximately 28° C. during the day and 24° C. during the night.
(§4) Spray solutions of the second herbicide or experimental compound mixtures were prepared by adding the stock solutions to the appropriate amount of dilution solution to form 12 mL spray solution with active ingredients in two-way combinations.

ISCRU = test: Example I: postemergence foliar-applied herbicidal mixtures, direct seeded rice, ISCRU; format: in vivo, Ischaemum rugosum (saramollagrass)
Procedure: as §7, §8, §9, §10, §11, §12
The following equation was used to calculate the expected activity of mixtures containing two active ingredients, A and B: Expected=A+B−(A×B/100)
A=observed efficacy of active ingredient A at the same concentration as used in the mixture.
B=observed efficacy of active ingredient B at the same concentration as used in the mixture.

SORHA = test: Example III: postemergence foliar-applied herbicidal mixtures, row crop weeds, SORHA; format: in vivo, Sorghum halepense (johnsongrass); settings: 13 DAA
Procedure: as §1

TRFRE = test: Example V: postemergence herbicidal activity of mixtures in forage crops, TRFRE; format: in vivo, Trifolium repens (white clover); settings: alone, foliar, approximately 21 days
Procedure: as §3, §4

SIDSP = test: Example V: postemergence herbicidal activity of mixtures in forage crops, SIDSP; format: in vivo, Sida spinosa (prickly sida); settings: alone, foliar, approximately 21 days
Procedure: as §3, §4

STEME = test: Example IV: postemergence foliar-applied herbicidal mixtures, cereal crops, STEME; format: in vivo, Stellaria media (common chickweed); settings: alone, 8.75 gai/ha, 20-22 days
Procedure: (§5) Seeds of the desired test plant species were planted in Sun Gro MetroMix 306 planting mixture, which typically has a pH of 6.0 to 6.8 and an organic matter content of about 30 percent, in plastic pots with a surface area of 103.2 square centimeters (cm^2). […] The plants were grown for 7-36 days in a greenhouse with an approximate 14 hour photoperiod which was maintained at about 18° C. during the day and 17° C. during the night.
(§6) Spray solutions of the second cereal herbicide and experimental compound mixtures were prepared by adding the stock solutions to the appropriate amount of dilution solution to form 12 mL spray solution with active ingredients in two- and three-way combinations.

SINAR = test: Example V: postemergence herbicidal activity of mixtures in forage crops, SINAR; format: in vivo, Sinapis arvensis (wild mustard); settings: alone, foliar, approximately 21 days
Method in brief: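 Plants grown from seed or root cuttings in MetroMix 306 (pH 6.0–6.8) for 14–60 days in greenhouse, ~14 h photoperiod, ~28/24 °C day/night. Foliar spray of two-way mixtures of the second herbicide or experimental compounds applied postemergence.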

PANMI = test: Example III: postemergence foliar-applied herbicidal mixtures, row crop weeds, PANMI; format: in vivo, Panicum miliaceum (wild-proso millet); settings: 16 DAA
Procedure: as §1

AMARE = test: Example IV: postemergence foliar-applied herbicidal mixtures, weed control in cereal crops in the greenhouse, AMARE; format: in vivo, Amaranthus retroflexus (redroot pigweed); settings: alone, 8.75 gai/ha, 20-22 days
Method in brief: as §2

CIRAR = test: Example IV: postemergence foliar-applied herbicidal mixtures, cereal crops, CIRAR; format: in vivo, Cirsium arvense (Canada thistle); settings: alone, 8.75 gai/ha, 20-22 days
Procedure: as §5, §6

ELEIN = test: Example III: postemergence foliar-applied herbicidal mixtures, weeds common to row crops such as corn and soybeans (greenhouse), ELEIN; format: in vivo, Eleusine indica (goosegrass)
Procedure: as §1

POLCO = test: Example IV: postemergence foliar-applied herbicidal mixtures, cereal crops, POLCO; format: in vivo, Polygonum convolvulus (wild buckwheat); settings: 8.75 gai/ha
Method in brief: as §2

VIOTR = test: Example IV: postemergence foliar-applied herbicidal mixtures, cereal crops, VIOTR; format: in vivo, Viola tricolor (wild pansy); settings: 8.75 gai/ha
Method in brief: as §2

COc1c(Cl)ccc(-c2nc(C(=O)O)c(Cl)c(N)c2F)c1F [Compound A Acid, 4-amino-3-chloro-6-(4-chloro-2-fluoro-3-methoxyphenyl)-5-fluoropyridine-2-carboxylic acid]
Visual Weed Control (%) - 21 DAA CYPES Obs (CYPES): 18% | Visual Weed Control (%) Obs (CYPIR; 8.75 gae/ha): 0% | Visual Weed Control (%) Obs (CYPIR; 17.5 gae/ha): 0% | Visual Weed Control (%) Obs (CYPIR; 35 gae/ha): 95% | Visual Weed Control (%) - 21 DAA SCPJU Obs (SCPJU; 8.75 gae/ha): 15% | Visual Weed Control (%) - 25 DAA SCPJU Obs (SCPJU; 8.75 gae/ha): 65% | Visual Weed Control (%) - 21 DAA SCPJU Obs (SCPJU; 17.5 gae/ha): 80% | Visual Weed Control (%) - 25 DAA SCPJU Obs (SCPJU; 17.5 gae/ha): 80% | Visual Weed Control (%) Obs (SCPJU; 22 DAA, 10.6 gae/ha): 60% | Visual Weed Control (%) Obs (SCPJU; 25 DAA, 8.75 gae/ha): 65% | Visual Weed Control (%) Obs (SCPJU; 25 DAA, 17.5 gae/ha): 80% | Visual Weed Control (%) Obs (SCPJU; 25 DAA, 35 gae/ha): 95% | Visual Weed Control (%) - 25 DAA SCPJU Obs (SCPJU; 35 gae/ha): 95% | Visual Weed Control (%) Obs (FIMMI): 40% | Visual Weed Control (%) - 21 DAA CYPDI Obs (CYPDI; 4.38 gae/ha): 50% | Visual Weed Control (%) - 21 DAA CYPDI Obs (CYPDI; 8.75 gae/ha): 85% | Visual Weed Control (%) Obs (PANDI): 60%

COc1c(Cl)ccc(-c2nc(C(=O)OCc3ccccc3)c(Cl)c(N)c2F)c1F [Compound A Benzyl Ester, benzyl ester of 4-amino-3-chloro-5-fluoro-6-(4-chloro-2-fluoro-3-methoxy-phenyl)pyridine-2-carboxylic acid]
Weed Control Ob (BRSNN; after 20-22 days): 23% | BRSNN Ob (observed value) (BRSNN; alone, foliar, 20-22 days): 23% | SOOSS Obs (observed value) (SOOSS; 2.2 gae/ha): 15% | SOOSS Obs (observed value) (SOOSS; 17.5 gae/ha): 100% | Visual Weed Control (%) - 21 DAA ISCRU Obs (ISCRU; 8 gae/ha): 20% | Visual Weed Control (%) - 21 DAA ISCRU Obs (ISCRU; 16 gae/ha): 0% | Visual Weed Control (%) Obs (SORHA; 3.75 gae/ha): 0% | Visual Weed Control (%) Obs (SORHA; 7.5 gae/ha): 0% | Visual Weed Control (%) Obs (SORHA; 15 gae/ha): 10% | TRFRE Obs (observed value) (TRFRE; 4.4 gae/ha): 0% | TRFRE Obs (observed value) (TRFRE; 8.8 gae/ha): 10% | TRFRE Obs (observed value) (TRFRE; 17.5 gae/ha): 30% | SIDSP Obs (observed value) (SIDSP; 1.1 gae/ha): 72% | SIDSP Obs (observed value) (SIDSP; 2.2 gae/ha): 77% | SIDSP Obs (observed value) (SIDSP; 4.4 gae/ha): 85% | STEME Ob (observed value) (STEME): 70% | SINAR Obs (observed value) (SINAR; 1.1 gae/ha): 72% | SINAR Obs (observed value) (SINAR; 2.2 gae/ha): 98% | SINAR Obs (observed value) (SINAR; 4.4 gae/ha): 80% and 100% | SINAR Obs (observed value) (SINAR; 8.8 gae/ha): 100% | SINAR Obs (observed value) (SINAR; 17.5 gae/ha): 100% | Visual Weed Control (%) Obs (PANMI; 3.75 gae/ha): 15% | Visual Weed Control (%) Obs (PANMI; 7.5 gae/ha): 50% | Visual Weed Control (%) Obs (PANMI; 15 gae/ha): 75% | AMARE Ob (observed value) (AMARE): 60% | CIRAR Ob (observed value) (CIRAR): 70% | Visual Weed Control (%) Obs (ELEIN; 14 DAA, 3.75 gae/ha): 0% | Visual Weed Control (%) Obs (ELEIN; 17 DAA, 7.5 gae/ha): 20% | Weed Control Ob (POLCO; after 20-22 days): 50% | POLCO Ob (observed value) (POLCO; alone, foliar, 20-22 days): 50% | Weed Control Ob (VIOTR; after 20-22 days): 30% | VIOTR Ob (observed value) (VIOTR; alone, foliar, 20-22 days): 30%
